Measured values from patent US20200048237A1, “A Free Base Oxazine Derivative in Crystalline Form” (NOVARTIS AG, priority 2017, published 2020).
One block for each compound: values may come before it.

Legend:
[1] = Drug-drug interaction study in healthy volunteers: plasma PK of Compound 1 alone and with strong CYP3A4 inducer rifampicin; type: in vivo, human; conditions: with rifampicin 600 mg q.d. vs Compound 1 alone
[2] = Drug-drug interaction study in healthy volunteers: plasma PK of Compound 1 alone and with strong CYP3A4 inhibitor itraconazole; type: in vivo, human; conditions: with itraconazole 200 mg q.d. vs Compound 1 alone
[3] = Chemical stability of crystalline Form A exposed to high temperature and/or humidity (UPLC purity, XRPD solid form); type: physicochemical
Experimental: The stability of crystalline Form A was tested by exposing the crystalline material to high temperature and/or humidity for at least three weeks. After storage at high temperature and/or humidity, bulk crystalline material was sampled and dissolved in acetonitrile:water (80:20) and the purity analysed in a Waters Aquity UPLC using the following conditions: […]

- Decrease of mean AUC of Compound 1 [1]: 5-6 fold
- Decrease of mean Cmax of Compound 1 [1]: 2.5 fold
- Increase of mean AUC of Compound 1 [2]: 2-3 fold
- Increase of mean Cmax of Compound 1 [2]: 25%
SMILES: C[C@@]1(c2nc(NC(=O)c3ncc(C(F)(F)F)cc3Cl)ccc2F)CO[C@@](C)(C(F)(F)F)C(N)=N1 [Compound 1, N-(6-((3R,6R)-5-amino-3,6-dimethyl-6-(trifluoromethyl)-3,6-dihydro-2H-1,4-oxazin-3-yl)-5-fluoropyridin-2-yl)-3-chloro-5-(trifluoromethyl)picolinamide]

- Solid State Form ([3]; RT, exposure time 0): Crystalline
- Thermodynamic stability among polymorphs ([3]; compared with Form B, hydrate Form HA and amorphous form): most thermodynamically stable polymorph
SMILES: C[C@@]1(c2nc(NC(=O)c3ncc(C(F)(F)F)cc3Cl)ccc2F)CO[C@@](C)(C(F)(F)F)C(N)=N1 [Form A, N-(6-((3R,6R)-5-amino-3,6-dimethyl-6-(trifluoromethyl)-3,6-dihydro-2H-1,4-oxazin-3-yl)-5-fluoropyridin-2-yl)-3-chloro-5-(trifluoromethyl)picolinamide]

- Solid form stability by XRPD analysis ([3]; same conditions as Table 12 (high temperature and/or humidity)): conversion into Form A occurred
SMILES: C[C@@]1(c2nc(NC(=O)c3ncc(C(F)(F)F)cc3Cl)ccc2F)CO[C@@](C)(C(F)(F)F)C(N)=N1 [Form B, N-(6-((3R,6R)-5-amino-3,6-dimethyl-6-(trifluoromethyl)-3,6-dihydro-2H-1,4-oxazin-3-yl)-5-fluoropyridin-2-yl)-3-chloro-5-(trifluoromethyl)picolinamide]
